The record followed here is patent US20190135818A1 (SHANGHAI INSTITUTE OF MATERIA MEDICA, CHINESE ACADEMY OF …, priority 2016, published 2019).

Assay [1] deals with Human acute myeloid leukemia cell line KG1. The assay can be described thus: FGFR-dependent tumor cell proliferation inhibition activity test (CCK-8, 72 h). The format is cell-based. Particulars: Homo sapiens, KG-1, KG1 cells. The source says:
Human acute myeloid leukemia cell line KG1 (FGFR1 fusion protein expressed in the cytoplasm, FGFR1-dependent tumor cell line) (ATCC, Cat. No. CCL-246), cell culture medium RPMI-1640 (Corning Cellgro, No. 10-040-CVR), fetal bovine serum (Life
Technologies, Cat. No. 10099-141) was purchased from the company; CCK-8 cell counting kit (DOJINDO, Cat. No. FK808). Adjustable wavelength microplate reader (Molecular Device, Cat. No. SpectraMax 190).
The inhibitory effect of the compound on KG1 proliferation was detected by CCK-8 Cell Counting Kit (Dojindo): Logarithmic growth phase cells were seeded in 96-well culture plate in appropriate density, 90 ul for each well. After cultured overnight, different concentrations of drugs were added and incubated for 72 h, while solvent control well was set (negative control). After the cells were treated by the compound for 72 h, 10 μL of CCK-8 reagent was added to each well. After incubated for 2-4 hours in a 37 □ incubator, the plate was read with SpectraMax 190 microplate reader at wavelength 450 nm.
The inhibition rate of compounds against cell proliferation is calculated by the following formula:
Inhibition rate (%)=(OD negative control well-OD administration well)/OD negative control well×100%.
(§1) The IC50 values were obtained by four-parameter regression analysis using the software supplied with the microplate reader.

In the next assay the target is T1, FGFR1 (Homo sapiens, UniProt P11362).
T1 construct: The reaction was initiated by addition of FGFR kinase domain recombinant protein diluted with 49 μL of reaction buffer; purchased Millipore 14-482
The assay can be described thus: FGFR kinase inhibitory activity experiment (ELISA, Poly(Glu,Tyr)4:1 substrate). The class given is biochemical. Particulars: kinase recombinant protein FGFR1, ATP 5 μM. How it is done: Precision electronic balance (Sartotius, Cat. No. BP210D), adjustable wavelength microplate reader (Molecular Device, Cat. No. SpectraMax 190).
After the liquid was removed from the wells, the plate was washed for three times with 200 μL/well of T-PBS (PBS containing 0.1% Tween-20) for 5 minutes each time. The enzyme plate was dried at 37° C. in a dryer for 1-2 hours.
50 μL ATP solution diluted with reaction buffer (50 mM HEPES pH 7.4, 50 mM MgCl2, 0.5 mM MnCl2, 0.2 mM Na3VO4, 1 mM DTT) was added into each well at a 5 μM final concentration. The compounds were diluted to appropriate concentration in DMSO, 1 μL/well or containing the corresponding concentrations of DMSO (negative control wells). The reaction was initiated by addition of FGFR kinase domain recombinant protein diluted with 49 μL of reaction buffer. Two control wells without enzyme were set in each experiment. The plate was placed on a shaker (100 rpm) at 37° C. for 1 hour. The plate was washed with T-PBS for three times. 100 μL/well of primary antibody PY99 dilution was added, and incubated at 37° C. for 0.5 hour on a shaker (100 rpm). The plate was washed with T-PBS for three times. 100 μL/well of horseradish peroxidase-labeled secondary anti-goat anti-mouse IgG dilution was added and incubated at 37° C. for 0.5 hour on a shaker (100 rpm). The plate was washed with T-PBS for three times. 100 μL/well of 2 mg/mL OPD coloration solution (diluted with 0.1 M citric acid-sodium citrate buffer containing 0.03% H2O2 (pH=5.4)) was added, and incubated in darkness for 1-10 minutes at 25° C. The reaction was quenched with 50 μL/well 2M H2SO4, and read at 490 nm using a tunable microplate microplate reader SPECTRA MAX 190.
The inhibition ratio of the sample was determined by the following formula: […]
as §1

T1 sequence (P11362 478-767 limits assumed): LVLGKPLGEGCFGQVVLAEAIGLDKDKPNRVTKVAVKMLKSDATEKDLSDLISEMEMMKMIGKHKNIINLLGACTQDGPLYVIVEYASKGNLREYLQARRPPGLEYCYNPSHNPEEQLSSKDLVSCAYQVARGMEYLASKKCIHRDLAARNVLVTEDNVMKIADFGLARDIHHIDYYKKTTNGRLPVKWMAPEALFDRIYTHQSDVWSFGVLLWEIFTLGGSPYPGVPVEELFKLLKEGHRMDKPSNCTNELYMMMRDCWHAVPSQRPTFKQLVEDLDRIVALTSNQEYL

As for `Cc1ccc2oc(-c3c4c(N)n[nH]c(=O)c4nn3-c3ccccc3)c(C)c2c1` [Compound A4, 4-amino-3-(3,5-dimethyl-1-benzofuran-2-yl)-2-phenyl-2,6-dihydro-7H-pyrazolo [3,4-d]pyridazine-7-one], in assay [1], the IC50 (usually the midpoint of a concentration-inhibition curve) lay in the range of 100 to 1000 nM.
Consider `Cc1c(-c2c3c(N)n[nH]c(=O)c3nn2-c2ccccc2)oc2ccc(Cl)cc12` [Compound A7, 4-amino-3-(5-chloro-3-methyl-1-benzo-furan-2-yl)-2-phenyl-2,6-dihydro-7H-pyrazolo[3,4-d]pyridazin-7-one], for which the IC50 on FGFR1 was < 100 nM; in assay [1], 100 to 1000 nM.
As to `Cc1c(-c2c3c(N)n[nH]c(=O)c3nn2-c2ccccc2)oc2cc(F)ccc12` [Compound A8, 4-amino-3-(6-fluoro-3-methyl-1-benzo-furan-2-yl)-2-phenyl-2,6-dihydro-7H-pyrazolo[3,4-d]pyridazin-7-one], the values for the IC50 (on FGFR1; in assay [1]) were < 100 nM and 100 to 1000 nM, respectively.
In the case of `Cc1ccc2oc(-c3c4c(N)n[nH]c(=O)c4nn3-c3ccc(NCN(C)C)cc3)c(C)c2c1` [Compound A9, 4-amino-3-(3,5-dimethyl-1-benzofuran-2-yl)-2-(4-{[(dimethylamino)methyl]amino}phenyl)-2,6-dihydro-7H-pyrazolo[3,4-d]pyridazin-7-one], the IC50 at FGFR1 was < 100 nM; in assay [1], 100 to 1000 nM.
For `CCC(=O)N1CCC(n2nc3c(=O)[nH]nc(N)c3c2-c2oc3ccc(C)cc3c2C)CC1` [Compound A10, 4-amino-3-(3,5-dimethyl-1-benzofuran-2-yl)-2-(1-propionylpiperidin-4-yl)-2,6-dihydro-7H-pyrazolo[3,4-d]pyridazin-7-one], the IC50 at FGFR1 was < 100 nM; in assay [1], 100 to 1000 nM.
Regarding `Cc1ccc2oc(-c3c4c(N)n[nH]c(=O)c4nn3-c3ccc(N(C)CCN(C)C)cc3)c(C)c2c1` [Compound A11, 4-amino-2-(4-{[2-(dimethylamino)ethyl] (methyl)amino}phenyl)-3-(3,5-dimethyl-1-benzofuran-2-yl)-2,6-dihydro-7H-pyrazolo[3,4-d]pyridazin-7-one], the IC50 at FGFR1 is < 100 nM; in assay [1], 100 to 1000 nM.
For the molecule `Cc1ccc2oc(-c3c4c(N)n[nH]c(=O)c4nn3-c3ccc(Cl)cc3)c(C)c2c1` [Compound A13, 4-amino-2-(4-chlorophenyl)-3-(3,5-dimethyl-1-benzofuran-2-yl)-2,6-dihydro-7H-pyrazolo[3,4-d]pyridazin-7-one], the IC50 on FGFR1 was < 100 nM; in assay [1] it was 100 to 1000 nM.
For the molecule `CCN1CCC(n2nc3c(=O)[nH]nc(N)c3c2-c2oc3ccc(Cl)cc3c2C)CC1` [Compound A23, 4-amino-3-(5-chloro-3-methyl-1-benzo-furan-2-yl)-2-(1-ethylpiperidin-4-yl)-2,6-dihydro-7H-pyrazolo[3,4-d]pyridazin-7-one], the IC50 on FGFR1 was < 100 nM; in assay [1], ≤ 100 nM.
Consider `CCN1CCC(n2nc3c(=O)[nH]nc(N)c3c2-c2oc3ccc(C)cc3c2C)CC1` [Compound A24, 4-amino-3-(3,5-dimethyl-1-benzofuran-2-yl)-2-(1-ethylpiperidin-4-yl)-2,6-dihy-dro-7H-pyrazolo[3,4-d]pyridazin-7-one], for which the results for the IC50 (at FGFR1; in assay [1]) were < 100 nM and ≤ 100 nM, respectively.
With `Cc1ccc2oc(-c3c4c(N)n[nH]c(=O)c4nn3-c3ccc(NC(=O)/C=C/CN4CCC4)cc3)c(C)c2c1` [Compound A27, (2E)-N-{4-[4-amino-3-(3,5-dimethyl-1-benzofuran-2-yl)-7-carbonyl-6,7-dihydro-2H-pyrazolo[3,4-d]pyridazin-2-yl]phenyl}-4-(azetidin-1-yl)but-2-enamide], the values for the IC50 (at FGFR1; in assay [1]) were < 100 nM and ≤ 100 nM, respectively.
Consider `C=CC(=O)N1CCC(n2nc3c(=O)[nH]nc(N)c3c2-c2oc3ccc(C)cc3c2C)CC1` [Compound A29, 2-(1-acryloylpiperidin-4-yl)-4-amino-3-(3,5-dimethyl-1-benzofuran-2-yl)-2,6-dihydro-7H-pyrazolo[3,4-d]pyridazin-7-one], for which the values for the IC50 (at FGFR1; in assay [1]) were < 100 nM and ≤ 100 nM, respectively.
On the same counts, the results for `Cc1ccc2oc(-c3c4c(N)n[nH]c(=O)c4nn3C3CCN(C(=O)/C=C/CN(C)C)CC3)c(C)c2c1` [Compound A30, 4-amino-2-{1-[(2E)-4-(dimethylamino)but-2-enoyl]piperidin-4-yl}-3-(3,5-dimethyl-1-benzofuran-2-yl)-2,6-dihydro-7H-pyrazolo[3,4-d]pyridazin-7-one] are < 100 nM and ≤ 100 nM.
`Cc1ccc2oc(-c3c4c(N)n[nH]c(=O)c4nn3C3CCN(C(=O)/C=C/CN4CCC4)CC3)c(C)c2c1` [Compound A31, 4-amino-2-{1-[(2E)-4-(azetidin-1-yl)but-2-enoyl]piperidin-4-yl}-3-(3,5-dimethyl-1-benzofuran-2-yl)-2,6-dihydro-7H-pyrazolo[3,4-d]pyridazin-7-one]: at FGFR1, the 50% inhibitory concentration (IC50) is < 100 nM.
The same measure, in the same setting: with `C=CC(=O)Nc1ccc(-n2nc3c(=O)[nH]nc(N)c3c2-c2oc3ccc(C)cc3c2C)cc1N(C)CCN(C)C` [Compound A32, N-(4-[4-amino-3-(3,5-dimethyl-1-benzo-furan-2-yl)-7-carbonyl-6,7-dihydro-2H-pyrazolo[3,4-d]pyridazin-2-yl]-2-{[(dimethylamino)ethyl](methyl)amino}phenyl)prop-2-enamide] the figure was < 100 nM.
With `C=CC(=O)NC1CCC(n2nc3c(=O)[nH]nc(N)c3c2-c2oc3ccc(C)cc3c2C)CC1` (stereo not shown) [Compound A33, N-{4-[4-amino-3-(3,5-dimethyl-1-benzo-furan-2-yl)-7-carbonyl-6,7-dihydro-2H-pyrazolo[3,4-d]pyridazin-2-yl]cyclohexyl}prop-2-enamide], the IC50 at FGFR1 was < 100 nM; in assay [1], ≤ 100 nM.
`Cc1ccc2oc(-c3c4c(N)n[nH]c(=O)c4nn3C3CCN(C(=O)/C=C/CN(C)C4CC4)CC3)c(C)c2c1` [Compound A34, 4-amino-2-(1-{(2E)-4-[cyclopropyl (methyl)amino]but-2-enoyl}piperidin-4-yl)-3-(3,5-dimethyl-1-benzofuran-2-yl)-2,6-dihydro-7H-pyrazolo[3,4-d] pyridazin-7-one]: at FGFR1, the IC50 is < 100 nM.
For the molecule `Cc1ccc2oc(-c3c4c(N)n[nH]c(=O)c4nn3C3CCC(NC(=O)CN(C)C)CC3)c(C)c2c1` (stereo not shown) [Compound A35, N-{4-[4-amino-3-(3,5-dimethyl-1-benzo-furan-2-yl)-7-carbonyl-6,7-dihydro-2H-pyrazolo[3,4-d]pyridazin-2-yl]cyclohexyl}-N,N-dimethylglycinamide], the IC50 at FGFR1 was < 100 nM; in assay [1], 100 to 1000 nM.
Turning to `Cc1ccc2oc(-c3c4c(N)n[nH]c(=O)c4nn3C3CCN(CCN(C)C)CC3)c(C)c2c1` [Compound A36, 4-amino-2-{1-[2-(dimethylamino)ethyl]piperidin-4-yl}-3-(3,5-dimethylbenzofuran-2-yl)-2H-pyrazolo[3,4-d]pyridazin-7(6H)-one], the IC50 on FGFR1 is < 100 nM.
As to `C=CC(=O)N1CCC(Cn2nc3c(=O)[nH]nc(N)c3c2-c2oc3ccc(C)cc3c2C)CC1` [Compound A38, 2-[(1-acryloylpiperidin-4-yl)methyl]-4-amino-3-(3,5-dimethyl-1-benzofuran-2-yl)-2,6-dihydro-7H-pyrazolo[3,4-d]pyridazin-7-one], at FGFR1, the IC50 is < 100 nM.
On to `C=CC(=O)N1CC(Cn2nc3c(=O)[nH]nc(N)c3c2-c2oc3ccc(C)cc3c2C)C1` [Compound A45, 2-[(1-acryloylazetidin-3-yl)methyl]-4-amino-3-(3,5-dimethyl-1-benzofuran-2-yl)-2,6-dihydro-7H-pyrazolo[3,4-d] pyridazin-7-one], for which the half-inhibitory concentration (IC50) on FGFR1 is < 100 nM.
Same read-out and setting: with `Cc1c(-c2c3c(N)n[nH]c(=O)c3nn2C2CCN(C(=O)/C=C/CNC3CC3)CC2)oc2ccc(Cl)cc12` [Compound A56, 4-amino-3-(5-chloro-3-methyl-1-benzo-furan-2-yl)-2-{1-[(2E)-4-(cyclopropyl-amino)but-2-enoyl]piperidin-4-yl}-2,6-dihydro-7H-pyrazolo[3,4-d]pyridazin-7-one] the figure was < 100 nM.
